US12018021B2 (UCB Biopharma SRL, priority 2018, dated 2024)
pIC50: −log10 of the molar value.

The compounds below were run against IgE-Tb / FcεRIα-Y131A-AF488 (Homo sapiens, UniProt P01854) (assay: IgE-Tb / FcεRIα-Y131A-AF488 FRET assay (protocol for examples 1 to 233)). Conditions: examples 1 to 233: 5 nM IgE-Tb, 25 nM FcεRIα-Y131A-AF488, incubated 2 hours at room temperature; read-out: Y131A FRET IC50 range.
Format: binding
Summary of the method: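 TR-FRET displacement with 5 nM IgE-Tb and 25 nM FcεRIα-Y131A-AF488 (final), 10-point 3-fold compound dilutions from typically 10 μM top, 2% DMSO, 2 h at room temperature. Excitation 330 nm, 520/495 nm emission ratio; MIN set with 200 nM unlabelled FcεRIα. IC50 from four-parameter logistic fit of percent inhibition.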

IgE-Tb / FcεRIα-Y131A-AF488, sequence (P01854 1-427 limits assumed, stated change not applied): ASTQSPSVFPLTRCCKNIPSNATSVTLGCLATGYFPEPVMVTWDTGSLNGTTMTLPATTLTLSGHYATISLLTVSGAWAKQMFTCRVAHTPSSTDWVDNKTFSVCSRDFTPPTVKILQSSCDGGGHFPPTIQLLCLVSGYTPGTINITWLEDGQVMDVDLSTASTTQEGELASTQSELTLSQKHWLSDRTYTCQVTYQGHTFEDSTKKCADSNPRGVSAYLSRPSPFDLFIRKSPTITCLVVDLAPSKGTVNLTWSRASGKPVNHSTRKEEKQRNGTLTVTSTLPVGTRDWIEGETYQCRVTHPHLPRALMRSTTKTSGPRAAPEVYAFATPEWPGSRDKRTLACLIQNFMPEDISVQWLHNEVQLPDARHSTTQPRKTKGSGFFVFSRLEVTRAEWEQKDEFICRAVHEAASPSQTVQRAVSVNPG

Q: How did the pIC50 turn out when `Cc1ccc(N2CC3(CCc4sc(NC(=O)C5CC5)c(C(=O)NCC5CC5)c4C3)OC2=O)cc1` (stereo not shown) [Example 61, 2-(Cyclopropanecarbonylamino)-N-(cyclopropylmethyl)-2′-oxo-3′-(p-tolyl)spiro[6,7-dihydro-4H-benzothiophene-5,5′-oxazolidine]-3-carboxamide] was run?
A: > 6.00

Q: With `Nc1ncccc1C1CCc2sc(NC(=O)C3CC3)c(C(=O)NCC3CC3)c2C1` (stereo not shown) [Example 62, 5-(2-Amino-3-pyridyl)-2-(cyclopropanecarbonylamino)-N-(cyclopropylmethyl)-4,5,6,7-tetrahydrobenzothiophene-3-carboxamide] as the compound, how does the pIC50 read?
A: > 6.00

Q: `Cc1ccc(-c2cnc(C3CCc4sc(NC(=O)C5CC5)c(C(=O)NCC5CC5)c4C3)[nH]2)cc1` (stereo not shown) [Example 63, 2-(Cyclopropanecarbonylamino)-N-(cyclopropylmethyl)-5-[5-(p-tolyl)-1H-imidazol-2-yl]-4,5,6,7-tetrahydrobenzothiophene-3-carboxamide] was tested. Which pIC50 did it give?
A: > 6.00

Q: With `N#CC1CCc2sc(NC(=O)C3CC3)c(C(=O)NCC3CC3)c2C1` (stereo not shown) [Example 64, 5-Cyano-2-(cyclopropanecarbonylamino)-N-(cyclopropylmethyl)-4,5,6,7-tetrahydrobenzothiophene-3-carboxamide] as the compound, how does the pIC50 read?
A: 5.00 to 6.00

Q: `N#CC1CCCc2c1sc(NC(=O)C1CC1)c2C(=O)NCC1CC1` (stereo not shown) [Example 65, 7-Cyano-2-(cyclopropanecarbonylamino)-N-(cyclopropylmethyl)-4,5,6,7-tetrahydrobenzothiophene-3-carboxamide] was tested. Which pIC50 did it give?
A: 5.00 to 6.00

Q: With `O=C(NCC1CC1)c1c(NC(=O)C2CC2)sc2c1C[C@H](C(F)(F)F)CC2` [Example 66, (5R)-2-(Cyclopropanecarbonylamino)-N-(cyclopropylmethyl)-5-(trifluoromethyl)-4,5,6,7-tetrahydrobenzothiophene-3-carboxamide] as the compound, how does the pIC50 read?
A: 5.00 to 6.00

Q: `O=C(NCC1CC1)c1c(NC(=O)C2CC2)sc2c1C[C@@H](C(F)(F)F)CC2` [Example 67, (5S)-2-(Cyclopropanecarbonylamino)-N-(cyclopropylmethyl)-5-(trifluoromethyl)-4,5,6,7-tetrahydrobenzothiophene-3-carboxamide] was tested. Which pIC50 did it give?
A: > 6.00

Q: `Cc1coc(C2CCc3sc(NC(=O)C4CC4)c(C(=O)NCC4CC4)c3C2)n1` (stereo not shown) [Example 68, 2-(Cyclopropanecarbonylamino)-N-(cyclopropylmethyl)-5-(4-methyloxazol-2-yl)-4,5,6,7-tetrahydrobenzothiophene-3-carboxamide] was tested. Which pIC50 did it give?
A: 5.00 to 6.00

Q: How did the pIC50 turn out when `NCC1(O)CCc2sc(NC(=O)C3CC3)c(C(=O)NCC3CC3)c2C1` (stereo not shown) [Example 69, 5-(Aminomethyl)-2-(cyclopropanecarbonylamino)-N-(cyclopropylmethyl)-5-hydroxy-6,7-dihydro-4H-benzothiophene-3-carboxamide] was run?
A: 4.30 to 5.00

Q: How did the pIC50 turn out when `Cc1ccc(NC(=O)NCC2(O)CCc3sc(NC(=O)C4CC4)c(C(=O)NCC4CC4)c3C2)cc1` (stereo not shown) [Example 70, 2-(Cyclopropanecarbonylamino)-N-(cyclopropylmethyl)-5-hydroxy-5-[(p-tolylcarbamoylamino)methyl]-6,7-dihydro-4H-benzothiophene-3-carboxamide] was run?
A: 5.00 to 6.00

Q: How did the pIC50 turn out when `Cc1noc(C2CCc3sc(NC(=O)C4CC4)c(C(=O)NCC4CC4)c3C2)n1` (stereo not shown) [Example 71, 2-(Cyclopropanecarbonylamino)-N-(cyclopropylmethyl)-5-(3-methyl-1,2,4-oxadiazol-5-yl)-4,5,6,7-tetrahydrobenzothiophene-3-carboxamide] was run?
A: 5.00 to 6.00

Q: `Cc1nnc(C2CCc3sc(NC(=O)C4CC4)c(C(=O)NCC4CC4)c3C2)o1` (stereo not shown) [Example 72, 2-(Cyclopropanecarbonylamino)-N-(cyclopropylmethyl)-5-(5-methyl-1,3,4-oxadiazol-2-yl)-4,5,6,7-tetrahydrobenzothiophene-3-carboxamide] was tested. Which pIC50 did it give?
A: 5.00 to 6.00

Q: How did the pIC50 turn out when `O=C(NCC1CC1)c1c(NC(=O)C2CC2)sc2c1CC(C(=O)N1CCCC1)CC2` (stereo not shown) [Example 73, 2-(Cyclopropanecarbonylamino)-N-(cyclopropylmethyl)-5-(pyrrolidine-1-carbonyl)-4,5,6,7-tetrahydrobenzothiophene-3-carboxamide] was run?
A: 5.00 to 6.00

Q: With `CC1(O)CCc2sc(NC(=O)C3CC3)c(C(=O)NCC3CC3)c2C1` (stereo not shown) [Example 74, 2-(Cyclopropanecarbonylamino)-N-(cyclopropylmethyl)-5-hydroxy-5-methyl-6,7-dihydro-4H-benzothiophene-3-carboxamide] as the compound, how does the pIC50 read?
A: 4.30 to 5.00

Q: With `O=C(Nc1sc2c(c1C(=O)N1CC[C@@H](F)C1)CCCC2)C1CC1` [Example 75, N-[3-[(3R)-3-Fluoropyrrolidine-1-carbonyl]-4,5,6,7-tetrahydrobenzothiophen-2-yl]cyclopropanecarboxamide] as the compound, how does the pIC50 read?
A: 5.00 to 6.00

Q: With `O=C(Nc1sc2c(c1C(=O)N1CC(F)C1)CCCC2)C1CC1` [Example 76, N-[3-(3-Fluoroazetidine-1-carbonyl)-4,5,6,7-tetrahydrobenzothiophen-2-yl]cyclopropanecarboxamide] as the compound, how does the pIC50 read?
A: 5.00 to 6.00

Q: With `COC1CN(C(=O)c2c(NC(=O)C3CC3)sc3c2CCCC3)C1` [Example 77] as the compound, how does the pIC50 read?
A: 5.00 to 6.00

Q: How did the pIC50 turn out when `O=C(Nc1sc2c(c1C(=O)N1CCCCC1)CCCC2)C1CC1` [Example 78, N-[3-(Piperidine-1-carbonyl)-4,5,6,7-tetrahydrobenzothiophen-2-yl]cyclopropanecarboxamide] was run?
A: 5.00 to 6.00

Q: With `CNC(=O)c1c(NC(=O)C2CC2)sc2c1CCCC2O` (stereo not shown) [Example 79, 2-(Cyclopropanecarbonylamino)-7-hydroxy-N-methyl-4,5,6,7-tetrahydrobenzothiophene-3-carboxamide] as the compound, how does the pIC50 read?
A: 4.30 to 5.00

Q: With `CC1Cc2c(sc(NC(=O)C3CC3)c2C(=O)NCC2CC2)C(C)C1` (stereo not shown) [Example 81, 2-(Cyclopropanecarbonylamino)-N-(cyclopropylmethyl)-5,7-dimethyl-4,5,6,7-tetrahydrobenzothiophene-3-carboxamide] as the compound, how does the pIC50 read?
A: 5.00 to 6.00

Q: `CC1CCc2sc(NC(=O)C3CC3)c(C(=O)NCC3CC3)c2C1` (stereo not shown) [Example 82, 2-(Cyclopropanecarbonylamino)-N-(cyclopropylmethyl)-5-methyl-4,5,6,7-tetrahydrobenzothiophene-3-carboxamide] was tested. Which pIC50 did it give?
A: 5.00 to 6.00

Q: With `CC1(C)CCc2sc(NC(=O)C3CC3)c(C(=O)NCC3CC3)c2C1` [Example 84, 2-(Cyclopropanecarbonylamino)-N-(cyclopropylmethyl)-5,5-dimethyl-6,7-dihydro-4H-benzothiophene-3-carboxamide] as the compound, how does the pIC50 read?
A: 5.00 to 6.00

Q: With `CC1CC(=O)c2sc(NC(=O)C3CC3)c(C(=O)NCC3CC3)c2C1` (stereo not shown) [Example 85, 2-(Cyclopropanecarbonylamino)-N-(cyclopropylmethyl)-5-methyl-7-oxo-5,6-dihydro-4H-benzothiophene-3-carboxamide] as the compound, how does the pIC50 read?
A: 5.00 to 6.00

Q: With `O=C(NCC1CC1)c1c(NC(=O)C2CC2)sc2c1CC1(CC2)OCCO1` [Example 86, 2′-(Cyclopropanecarbonylamino)-N-(cyclopropylmethyl)spiro[1,3-dioxolane-2,5′-6,7-dihydro-4H-benzothiophene]-3′-carboxamide] as the compound, how does the pIC50 read?
A: > 6.00

Q: With `CC(C)C(=O)Nc1sc2c(c1C(=O)NCC1CC1)CCCC2` [Example 87, N-(Cyclopropylmethyl)-2-(2-methylpropanoylamino)-4,5,6,7-tetrahydrobenzothiophene-3-carboxamide] as the compound, how does the pIC50 read?
A: 4.30 to 5.00

Q: `O=C(NCC1CC1)c1c(NC(=O)C2CCC2)sc2c1CCCC2` [Example 88, 2-(Cyclobutanecarbonylamino)-N-(cyclopropylmethyl)-4,5,6,7-tetrahydrobenzothiophene-3-carboxamide] was tested. Which pIC50 did it give?
A: 4.30 to 5.00

Q: With `CC1CCc2sc(NC(=O)C3CC3)c(C(=O)NCC3CC3)c2C1C` (stereo not shown) [Example 89, 2-(Cyclopropanecarbonylamino)-N-(cyclopropylmethyl)-4,5-dimethyl-4,5,6,7-tetrahydrobenzothiophene-3-carboxamide] as the compound, how does the pIC50 read?
A: 5.00 to 6.00

Q: How did the pIC50 turn out when `O=C1NC(=O)C2(CCc3sc(NC(=O)C4CC4)c(C(=O)NCC4CC4)c3C2)N1` (stereo not shown) [Example 92, 2-(Cyclopropanecarbonylamino)-N-(cyclopropylmethyl)-2′,5′-dioxo-spiro[6,7-dihydro-4H-benzothiophene-5,4′-imidazolidine]-3-carboxamide] was run?
A: 5.00 to 6.00

Q: `O=C(OCC1CC1)c1c(NC(=O)C2CC2)sc2c1CC(NC(=S)Nc1cccnc1)CC2` (stereo not shown) [Example 93, Cyclopropylmethyl 2-(cyclopropanecarbonylamino)-5-(3-pyridylcarbamothioylamino)-4,5,6,7-tetrahydrobenzothiophene-3-carboxylate] was tested. Which pIC50 did it give?
A: 5.00 to 6.00

Q: `O=C(OCC1CC1)c1c(NC(=O)C2CC2)sc2c1CC(n1cnnc1Nc1cccnc1)CC2` (stereo not shown) [Example 94, Cyclopropylmethyl 2-(cyclopropanecarbonylamino)-5-[3-(3-pyridylamino)-1,2,4-triazol-4-yl]-4,5,6,7-tetrahydrobenzothiophene-3-carboxylate] was tested. Which pIC50 did it give?
A: > 6.00

Q: With `CC(C)(C)OC(=O)NC1CCCc2c1sc(NC(=O)C1CC1)c2C(=O)NCC1CC1` (stereo not shown) [Example 97, tert-Butyl N-[2-(cyclopropanecarbonylamino)-3-(cyclopropylmethylcarbamoyl)-4,5,6,7-tetrahydrobenzothiophen-7-yl]carbamate] as the compound, how does the pIC50 read?
A: 5.00 to 6.00

Q: How did the pIC50 turn out when `CCNC(=O)C1CCCc2c1sc(NC(=O)C1CC1)c2C(=O)NCC1CC1` (stereo not shown) [Example 98, 2-(Cyclopropanecarbonylamino)-N3-(cyclopropylmethyl)-N7-ethyl-4,5,6,7-tetrahydrobenzothiophene-3,7-dicarboxamide] was run?
A: 4.30 to 5.00

Q: `O=C(NCC1CC1)c1c(NC(=O)C2CC2)sc2c1CC(c1cc[nH]n1)CC2` (stereo not shown) [Example 100, 2-(Cyclopropanecarbonylamino)-N-(cyclopropylmethyl)-5-(1H-pyrazol-3-yl)-4,5,6,7-tetrahydrobenzothiophene-3-carboxamide] was tested. Which pIC50 did it give?
A: > 6.00

Q: `CCOC(=O)c1c(NC(=O)C2CC2)sc2c1CCCC2O` (stereo not shown) [Example 103, Ethyl 2-(cyclopropanecarbonylamino)-7-hydroxy-4,5,6,7-tetrahydrobenzothiophene-3-carboxylate] was tested. Which pIC50 did it give?
A: 4.30 to 5.00
